In patent publication US20050267156A1, “Broadspectrum 2-amino-benzothiazole sulfonamide hiv protease inhibitors” (Tibotec Pharmaceuticals Ltd., priority 2002, published 2005):
Where two headings read alike, the source gives them in different places.

How the values were obtained:
[1] = system: mutant HIV protease viruses; assay: Panel of more than 20 mutant proteases; format: cell-based
HIV-1 strain LAI = assay: Cellular anti-HIV assay (MT4/MTT), wild type; format: cell-based; details: Human immunodeficiency virus 1; wild type HIV-1 strain LAI, MT4 cells; read-out: WT (pEC50) (converted)
mutant HIV strain C = assay: microbe, parasite or virus in culture; format: cell-based; details: for EC50: Human immunodeficiency virus 1, MT4, read-out: pEC50 Strain C, mutant HIV strain C, MT4 cells (converted)
mutant HIV strain B = assay: microbe, parasite or virus in culture; format: cell-based
mutant HIV strain E = assay: microbe, parasite or virus in culture; format: cell-based; details: for EC50: Human immunodeficiency virus 1, MT4, read-out: pEC50 Strain E, mutant HIV strain E, MT4 cells (converted)
mutant HIV strain D = assay: microbe, parasite or virus in culture; format: cell-based; details: for EC50: Human immunodeficiency virus 1, MT4, read-out: pEC50 Strain D, mutant HIV strain D, MT4 cells (converted)
mutant HIV strain A = assay: microbe, parasite or virus in culture; format: cell-based; details: for EC50: Human immunodeficiency virus 1, MT4, read-out: pEC50 Strain A, mutant HIV strain A, MT4 cells (converted)
[2] = Toxicity on mock-infected cells (MTT); format: cell-based; details: human
Pharmacokinetics in rats = format: in vivo, Whistar rats; details: Whistar, rat, blood, 10 mpk, read-out: Cmax
Description: (§1) The pharmacokinetic properties of some compounds of formula (I) were tested on rats and dogs. The compounds were evaluated in Whistar rats, source Iffa Credo, weighing approximately 350 g. Before dosing the animals were fasted overnight (approximately 12 h fasting period). The compounds were dissolved in DMSO or PEG 400. The results represented in the table concern the results from the oral or intra-peritoneal dosing of the compounds. Blood was sampled at 30 min, 1 h, 2 h, 3 h, no pre-dose sample was taken. The amount of the compound in the biological sample was determined using LC-MS. In the table below “or” means oral dosing, “ip” means intraperitoneal dosing, “mpk” means mg per kilogram.

Pharmacokinetics in dogs = format: in vivo; details: dog, blood, po, 10 mpk, or, read-out: Cmax
Description: as §1

mutant HIV strain F = assay: microbe, parasite or virus in culture; format: cell-based; details: Human immunodeficiency virus 1, MT4, read-out: pEC50 Strain F, mutant HIV strain F, MT4 cells (converted)
[3] = FR=EC50 (mutant strain)/EC50 (HIV-1 strain LAI)

Q: Which IC50 ([1]; Human immunodeficiency virus 1, read-out: pIC50 for the most resistant mutant (converted)) does the source give for `CC(C)CN(C[C@@H](O)[C@H](Cc1ccccc1)NC(=O)OC1COC2OCCC12)S(=O)(=O)c1ccc2nc(N)sc2c1` (stereo partly drawn) [Compound 1, {(1S,2R)-3-[(2-amino-benzothiazole-6-sulfonyl)-isobutyl-amino]-1-benzyl-2-hydroxypropyl}-carbamic acid hexahydro-furo[2,3-b]furan-3-yl ester] here?
A: The IC50 was 7.59 nM.

Q: What about the IC50 ([1]; Human immunodeficiency virus 1, read-out: pIC50 for the most sensitive mutant (converted)) of the same molecule?
A: Its IC50 is 0.741 nM.

Q: And the EC50 (HIV-1 strain LAI)?
A: Its EC50 is 5.5 nM.

Q: And the “fold resistance Strain C” value (mutant HIV strain C; [3])?
A: The value was 0.8.

Q: What about the EC50 (mutant HIV strain C) of the same molecule?
A: Its EC50 is 4.17 nM.

Q: And the “fold resistance Strain B” value (mutant HIV strain B; [3])?
A: The value was 0.7.

Q: What about the EC50 (mutant HIV strain B; Human immunodeficiency virus 1, MT4, read-out: pEC50 Strain B, mutant HIV strain B, MT4 cells (converted)) of the same molecule?
A: The EC50 was 3.63 nM.

Q: And the “fold resistance Strain E” value (mutant HIV strain E; [3])?
A: The value was 0.6.

Q: And the EC50 (mutant HIV strain E)?
A: Its EC50 is 3.09 nM.

Q: And the “fold resistance Strain D” value (mutant HIV strain D; [3])?
A: The value was 0.4.

Q: And the EC50 (mutant HIV strain D)?
A: The EC50 was 2.24 nM.

Q: What about the “fold resistance Strain A” value (mutant HIV strain A; [3]) of the same molecule?
A: The value was 0.5.

Q: What about the EC50 (mutant HIV strain A) of the same molecule?
A: The EC50 was 2.95 nM.

Q: What about the CC50 at 5 days [2] of the same molecule?
A: Its CC50 at 5 days is 69200 nM.

Q: Which results are given for `CNc1nc2ccc(S(=O)(=O)N(CC(C)C)C[C@@H](O)[C@H](Cc3ccccc3)NC(=O)OCc3cncs3)cc2s1` [Compound 18, {(1S,2R)-1-benzyl-2-hydroxy-3-[isobutyl-(2-methylamino-benzothiazole-6-sulfonyl)-amino]-propyl}-carbamic acid thiazol-5-ylmethyl ester]?
A: Cmax (Pharmacokinetics in rats; ip, ip, DMSO, results normalized to 10 mpk): 1140 ng/mL; Cmax (Pharmacokinetics in rats; po, or, DMSO, results normalized to 10 mpk): 396 ng/mL; Cmax (Pharmacokinetics in rats; po, or, PEG400, results normalized to 10 mpk): 668 ng/mL; Cmax (Pharmacokinetics in dogs; DMSO, results normalized to 10 mpk): 15 ng/mL; Cmax (Pharmacokinetics in dogs; PEG400, results normalized to 10 mpk): 42 ng/mL; EC50 (HIV-1 strain LAI): 1.91 nM; EC50 (mutant HIV strain C): 7.41 nM; pEC50 Strain B (mutant HIV strain B; mutant HIV strain B, MT4 cells): 8.21; EC50 (mutant HIV strain E): 9.12 nM; EC50 (mutant HIV strain D): 21.4 nM; EC50 (mutant HIV strain A): 30.9 nM; EC50 (mutant HIV strain F): 148 nM; CC50 at 5 days [2]: 85100 nM
